In US20230265151A1, “GIP/GLP1 CO-AGONIST COMPOUNDS” (priority 2020, published 2023):
Like-named read-outs stand apart in the source and are kept apart here.

How the values were obtained:
[1] = target: T1, human Gcg receptor (hGcgR) (Homo sapiens, UniProt P47871); experiment: [125I]-Glucagon binding, SPA with membranes of HEK293 cells expressing hGcgR; settings: human GcgR; geometric mean (SEM, n); read-out: Binding Affinity Ki, nM (SEM, n) hGCGR
T1 construct: expressed in transfected cells; crude membranes

hGIPR = target: T2, hGIPR (Homo sapiens, UniProt P48546); experiment: Functional cAMP formation (HTRF) in HEK-293 clonal cells expressing hGIPR, 0.1% bovine casein, without or with 1.0% human serum albumin; assay type: cell-based; settings: for EC50: geometric mean, read-out: hGIPR EC50, nM (SEM, n); for Emax: read-out: hGIPR Emax, % ± SEM
T2 construct: expressed in transfected cells
T2 sequence (P48546 22-466): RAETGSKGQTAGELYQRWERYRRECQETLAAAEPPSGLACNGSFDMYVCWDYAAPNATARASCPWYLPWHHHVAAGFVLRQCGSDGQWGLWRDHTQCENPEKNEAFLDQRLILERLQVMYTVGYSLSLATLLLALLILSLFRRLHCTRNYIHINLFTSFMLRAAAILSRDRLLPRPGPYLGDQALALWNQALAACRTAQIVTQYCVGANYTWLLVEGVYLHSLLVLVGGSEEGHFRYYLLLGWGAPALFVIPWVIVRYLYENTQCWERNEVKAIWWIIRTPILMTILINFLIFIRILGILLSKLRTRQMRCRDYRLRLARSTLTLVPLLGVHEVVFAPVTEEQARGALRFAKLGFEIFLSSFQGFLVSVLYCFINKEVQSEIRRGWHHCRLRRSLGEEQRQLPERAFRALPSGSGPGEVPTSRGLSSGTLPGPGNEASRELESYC
In short: (§1)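 Readings of the HTRF 665/620 nm ratio, which falls as cAMP rises, were converted to nM cAMP using a standard curve after 30 min peptide exposure at 37° C.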

hGCGR = target: T3, hGCGR (Homo sapiens, UniProt P47871); experiment: Functional cAMP formation (HTRF) in HEK-293 clonal cells expressing hGCGR, 0.1% bovine casein, without or with 1.0% human serum albumin; assay type: cell-based; settings: geometric mean, read-out: hGCGR EC50, nM (SEM, n)
T3 construct: expressed in transfected cells
In short: as §1

hGLP-1R = hGLP-1R (Homo sapiens, UniProt P43220); experiment: Functional cAMP formation (HTRF) in HEK-293 clonal cells expressing hGLP-1R, 0.1% bovine casein, without or with 1.0% human serum albumin; assay type: cell-based; design: expressed in transfected cells; settings: for EC50: geometric mean, read-out: hGLP-1R EC50, nM (SEM, n); for Emax: read-out: hGLP-1R Emax, % ± SEM
In short: as §1

[2] = 0.1% bovine casein and 1.0% human serum albumin, 37° C.
[3] = HEK293, 0.1% bovine casein and 1.0% human serum albumin, 37° C., percent of maximal response to GIP(1-42)NH2
[4] = cAMP, incubated at 37° C., 0.1% bovine casein (no human serum albumin)
[5] = HEK293, 0.1% bovine casein and 1.0% human serum albumin, 37° C., percent of maximal response to GLP-1(7-36)NH2
[6] = HEK293, percent of maximal response to GIP(1-42)NH2, 37° C., 0.1% bovine casein, arithmetic mean
[7] = HEK293, percent of maximal response to GLP-1(7-36)NH2, 37° C., 0.1% bovine casein, arithmetic mean

Sequence of hGLP-1R (P43220 24-463): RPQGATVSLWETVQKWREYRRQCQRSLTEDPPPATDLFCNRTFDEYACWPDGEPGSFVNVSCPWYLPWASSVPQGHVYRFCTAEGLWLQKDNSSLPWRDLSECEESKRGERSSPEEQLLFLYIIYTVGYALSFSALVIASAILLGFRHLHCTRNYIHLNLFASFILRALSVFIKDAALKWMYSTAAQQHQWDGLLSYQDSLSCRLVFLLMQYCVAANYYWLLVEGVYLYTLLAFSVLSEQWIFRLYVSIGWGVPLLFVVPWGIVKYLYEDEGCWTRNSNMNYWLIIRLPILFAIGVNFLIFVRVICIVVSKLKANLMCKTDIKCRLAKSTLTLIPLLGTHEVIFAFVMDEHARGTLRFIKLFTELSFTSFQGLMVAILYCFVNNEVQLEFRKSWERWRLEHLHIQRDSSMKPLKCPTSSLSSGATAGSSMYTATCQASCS
T1 sequence (P47871 26-477): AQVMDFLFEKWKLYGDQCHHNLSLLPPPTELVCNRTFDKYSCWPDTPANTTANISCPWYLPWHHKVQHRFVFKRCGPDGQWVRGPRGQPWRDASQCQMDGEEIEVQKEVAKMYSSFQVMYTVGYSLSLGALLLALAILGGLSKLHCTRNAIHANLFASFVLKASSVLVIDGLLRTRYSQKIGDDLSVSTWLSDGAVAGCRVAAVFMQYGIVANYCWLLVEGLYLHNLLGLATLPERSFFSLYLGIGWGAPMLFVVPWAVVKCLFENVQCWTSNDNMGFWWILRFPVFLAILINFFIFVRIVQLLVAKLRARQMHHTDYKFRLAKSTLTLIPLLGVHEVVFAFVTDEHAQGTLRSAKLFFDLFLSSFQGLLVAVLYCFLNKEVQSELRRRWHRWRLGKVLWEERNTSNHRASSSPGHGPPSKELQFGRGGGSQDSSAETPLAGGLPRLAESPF
T3 sequence (P47871 26-477): as above

| SMILES | Ki [1] | EC50 (hGIPR; [2]) | Emax (hGIPR; [3]) | EC50 (hGIPR; [4]) | EC50 (hGCGR; [2]) | EC50 (hGCGR; [4]) | EC50 (hGLP-1R; [2]) | EC50 (hGLP-1R; [4]) | Emax (hGLP-1R; [5]) | Emax (hGIPR; [6]) | Emax (hGLP-1R; [7]) |
| --- | --- | --- | --- | --- | --- | --- | --- | --- | --- | --- | --- |
| CC[C@H](C)[C@H](NC(=O)[C@H](CC(C)C)NC(=O)[C@](C)(Cc1ccc(O)cc1)NC(=O)[C@@H](CCC(=O)O)NC(=O)[C@@H](NC(=O)[C@H](Cc1ccccc1)NC(=O)[C@H](CCC(=O)O)NC(=O)C(C)(C)NC(=O)[C@H](CCC(N)=O)NC(=O)[C@H](C)NC(=O)[C@H](CCCCNC(=O)CC[C@H](NC(=O)COCCOCCNC(=O)COCCOCCNC(=O)CCCCCCCCCCCCC(=O)O)C(=O)O)NC(=O)[C@H](CCCN)NC(=O)[C@H](CC(=O)O)NC(=O)[C@H](CC(C)C)NC(=O)[C@](C)(CC(C)C)NC(=O)[C@@H](NC(=O)[C@H](CO)NC(=O)[C@H](Cc1ccncc1)NC(=O)[C@H](CC(=O)O)NC(=O)[C@H](CO)NC(=O)[C@@H](NC(=O)[C@](C)(Cc1ccccc1F)NC(=O)[C@@H](NC(=O)CNC(=O)[C@H](CCC(=O)O)NC(=O)C(C)(C)NC(=O)[C@@H](N)Cc1ccc(O)cc1)[C@@H](C)O)[C@@H](C)O)[C@@H](C)CC)[C@@H](C)CC)C(=O)N[C@@H](CCC(=O)O)C(=O)NCC(=O)NCC(=O)N[C@@H](CCCCNC(=O)CC[C@H](NC(=O)COCCOCCNC(=O)COCCOCCNC(=O)CCCCCCCCCCCCC(=O)O)C(=O)O)C(=O)N[C@@H](CO)C(=O)N[C@@H](CO)C(=O)NCC(=O)N[C@@H](C)C(=O)N1CCC[C@H]1C(=O)N1CCC[C@H]1C(=O)N1CCC[C@H]1C(=O)N[C@@H](CO)C(N)=O [Example 41] | > 957 nM | 0.405 nM | 88.5 ± 0.638% | 0.0108 nM | > 9950 nM | > 9950 nM | 27.2 nM | 0.691 nM |  |  |  |
| CC[C@H](C)[C@H](NC(=O)[C@H](CC(C)C)NC(=O)[C@](C)(Cc1ccc(O)cc1)NC(=O)[C@@H](CCC(=O)O)NC(=O)[C@@H](NC(=O)[C@H](Cc1ccccc1)NC(=O)[C@H](CCC(=O)O)NC(=O)C(C)(C)NC(=O)[C@H](CCC(N)=O)NC(=O)[C@H](C)NC(=O)[C@H](CCCCNC(=O)COCCOCCNC(=O)CC[C@H](NC(=O)COCCOCCNC(=O)CCCCCCCCCCCCC(=O)O)C(=O)O)NC(=O)[C@H](CCCN)NC(=O)[C@H](CC(=O)O)NC(=O)[C@H](CC(C)C)NC(=O)[C@](C)(CC(C)C)NC(=O)[C@@H](NC(=O)[C@H](CO)NC(=O)[C@H](Cc1ccncc1)NC(=O)[C@H](CC(=O)O)NC(=O)[C@H](CO)NC(=O)[C@@H](NC(=O)[C@](C)(Cc1ccccc1F)NC(=O)[C@@H](NC(=O)CNC(=O)[C@H](CCC(=O)O)NC(=O)C(C)(C)NC(=O)[C@@H](N)Cc1ccc(O)cc1)[C@@H](C)O)[C@@H](C)O)[C@@H](C)CC)[C@@H](C)CC)C(=O)N[C@@H](CCC(=O)O)C(=O)NCC(=O)NCC(=O)N[C@@H](CCCCNC(=O)COCCOCCNC(=O)CC[C@H](NC(=O)COCCOCCNC(=O)CCCCCCCCCCCCC(=O)O)C(=O)O)C(=O)N[C@@H](CO)C(=O)N[C@@H](CO)C(=O)NCC(=O)N[C@@H](C)C(=O)N1CCC[C@H]1C(=O)N1CCC[C@H]1C(=O)N1CCC[C@H]1C(=O)N[C@@H](CO)C(N)=O [Example 43] | > 957 nM | 0.375 nM |  | 0.0123 nM | > 9950 nM | > 9950 nM | 35.6 nM |  | 98.7% |  |  |
| CC[C@H](C)[C@H](NC(=O)[C@H](CC(C)C)NC(=O)[C@](C)(Cc1ccc(O)cc1)NC(=O)[C@@H](CCC(=O)O)NC(=O)[C@@H](NC(=O)[C@H](Cc1ccccc1)NC(=O)[C@H](CCC(=O)O)NC(=O)C(C)(C)NC(=O)[C@H](CCC(N)=O)NC(=O)[C@H](C)NC(=O)[C@H](CCCCNC(=O)COCCOCCNC(=O)COCCOCCNC(=O)CC[C@H](NC(=O)CCCCCCCCCCCCC(=O)O)C(=O)O)NC(=O)[C@H](CCCN)NC(=O)[C@H](CC(=O)O)NC(=O)[C@H](CC(C)C)NC(=O)[C@](C)(CC(C)C)NC(=O)[C@@H](NC(=O)[C@H](CO)NC(=O)[C@H](Cc1ccncc1)NC(=O)[C@H](CC(=O)O)NC(=O)[C@H](CO)NC(=O)[C@@H](NC(=O)[C@](C)(Cc1ccccc1)NC(=O)[C@@H](NC(=O)CNC(=O)[C@H](CCC(=O)O)NC(=O)C(C)(C)NC(=O)[C@@H](N)Cc1ccc(O)cc1)[C@@H](C)O)[C@@H](C)O)[C@@H](C)CC)[C@@H](C)CC)C(=O)N[C@@H](CCC(=O)O)C(=O)NCC(=O)NCC(=O)N[C@@H](CCCCNC(=O)COCCOCCNC(=O)COCCOCCNC(=O)CC[C@H](NC(=O)CCCCCCCCCCCCC(=O)O)C(=O)O)C(=O)N[C@@H](CO)C(=O)N[C@@H](CO)C(=O)NCC(=O)N[C@@H](C)C(=O)N1CCC[C@H]1C(=O)N1CCC[C@H]1C(=O)N1CCC[C@H]1C(=O)N[C@@H](CO)C(N)=O [Example 44] | > 966 nM | 1.68 nM | 87% |  | > 9950 nM | > 9950 nM | 125 nM |  | 94.5% | 92.2 ± 6.17% | 90.9 ± 10.4% |
| CC[C@H](C)[C@H](NC(=O)[C@H](CC(C)C)NC(=O)[C@](C)(Cc1ccc(O)cc1)NC(=O)[C@@H](CCC(=O)O)NC(=O)[C@@H](NC(=O)[C@H](Cc1ccccc1)NC(=O)[C@H](CCC(=O)O)NC(=O)C(C)(C)NC(=O)[C@H](CCC(N)=O)NC(=O)[C@H](C)NC(=O)[C@H](CCCCNC(=O)COCCOCCNC(=O)COCCOCCNC(=O)CC[C@H](NC(=O)CCCCCCCCCCCCC(=O)O)C(=O)O)NC(=O)[C@H](CCCN)NC(=O)[C@H](CC(=O)O)NC(=O)[C@H](CC(C)C)NC(=O)[C@](C)(CC(C)C)NC(=O)[C@@H](NC(=O)[C@H](CO)NC(=O)[C@](C)(Cc1ccccc1)NC(=O)[C@H](CC(=O)O)NC(=O)[C@H](CO)NC(=O)[C@@H](NC(=O)[C@](C)(Cc1ccccc1)NC(=O)[C@@H](NC(=O)CNC(=O)[C@H](CCC(=O)O)NC(=O)C(C)(C)NC(=O)[C@@H](N)Cc1ccc(O)cc1)[C@@H](C)O)[C@@H](C)O)[C@@H](C)CC)[C@@H](C)CC)C(=O)N[C@@H](CCC(=O)O)C(=O)NCC(=O)NCC(=O)N[C@@H](CCCCNC(=O)COCCOCCNC(=O)COCCOCCNC(=O)CC[C@H](NC(=O)CCCCCCCCCCCCC(=O)O)C(=O)O)C(=O)N[C@@H](CO)C(=O)N[C@@H](CO)C(=O)NCC(=O)N[C@@H](C)C(=O)N1CCC[C@H]1C(=O)N1CCC[C@H]1C(=O)N1CCC[C@H]1C(=O)N[C@@H](CO)C(N)=O [Example 45] | > 966 nM |  | 72.5% |  | > 9950 nM | > 9950 nM |  | 9.18 nM | 109% | 91.3 ± 1.04% | 85.7 ± 8.37% |
